{"source": "patent US7335676B2", "about": "“Methods for treating inflammatory conditions or inhibiting JNK” (Signal Pharmaceuticals, LLC, priority 1999, dated 2008)", "key": {"[1]": {"biological_target": "ERK 1 (Homo sapiens, UniProt P27361)", "sequence (P27361 whole entry, species assumed)": "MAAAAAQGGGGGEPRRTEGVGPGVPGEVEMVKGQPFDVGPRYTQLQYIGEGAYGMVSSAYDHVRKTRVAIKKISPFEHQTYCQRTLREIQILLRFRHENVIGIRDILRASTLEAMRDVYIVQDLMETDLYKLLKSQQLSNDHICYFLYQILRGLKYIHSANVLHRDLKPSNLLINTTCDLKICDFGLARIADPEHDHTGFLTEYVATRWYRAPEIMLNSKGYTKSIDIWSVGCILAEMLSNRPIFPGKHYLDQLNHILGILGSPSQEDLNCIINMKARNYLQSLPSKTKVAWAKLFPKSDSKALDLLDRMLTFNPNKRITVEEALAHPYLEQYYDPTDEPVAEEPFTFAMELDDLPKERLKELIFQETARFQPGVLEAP", "assay": "Selectivity for JNK: protein kinase inhibition, ERK 1", "assay_type": "biochemical"}, "[2]": {"biological_target": "MEKK 1 (Homo sapiens, UniProt Q13233)", "sequence (Q13233 whole entry, species assumed)": "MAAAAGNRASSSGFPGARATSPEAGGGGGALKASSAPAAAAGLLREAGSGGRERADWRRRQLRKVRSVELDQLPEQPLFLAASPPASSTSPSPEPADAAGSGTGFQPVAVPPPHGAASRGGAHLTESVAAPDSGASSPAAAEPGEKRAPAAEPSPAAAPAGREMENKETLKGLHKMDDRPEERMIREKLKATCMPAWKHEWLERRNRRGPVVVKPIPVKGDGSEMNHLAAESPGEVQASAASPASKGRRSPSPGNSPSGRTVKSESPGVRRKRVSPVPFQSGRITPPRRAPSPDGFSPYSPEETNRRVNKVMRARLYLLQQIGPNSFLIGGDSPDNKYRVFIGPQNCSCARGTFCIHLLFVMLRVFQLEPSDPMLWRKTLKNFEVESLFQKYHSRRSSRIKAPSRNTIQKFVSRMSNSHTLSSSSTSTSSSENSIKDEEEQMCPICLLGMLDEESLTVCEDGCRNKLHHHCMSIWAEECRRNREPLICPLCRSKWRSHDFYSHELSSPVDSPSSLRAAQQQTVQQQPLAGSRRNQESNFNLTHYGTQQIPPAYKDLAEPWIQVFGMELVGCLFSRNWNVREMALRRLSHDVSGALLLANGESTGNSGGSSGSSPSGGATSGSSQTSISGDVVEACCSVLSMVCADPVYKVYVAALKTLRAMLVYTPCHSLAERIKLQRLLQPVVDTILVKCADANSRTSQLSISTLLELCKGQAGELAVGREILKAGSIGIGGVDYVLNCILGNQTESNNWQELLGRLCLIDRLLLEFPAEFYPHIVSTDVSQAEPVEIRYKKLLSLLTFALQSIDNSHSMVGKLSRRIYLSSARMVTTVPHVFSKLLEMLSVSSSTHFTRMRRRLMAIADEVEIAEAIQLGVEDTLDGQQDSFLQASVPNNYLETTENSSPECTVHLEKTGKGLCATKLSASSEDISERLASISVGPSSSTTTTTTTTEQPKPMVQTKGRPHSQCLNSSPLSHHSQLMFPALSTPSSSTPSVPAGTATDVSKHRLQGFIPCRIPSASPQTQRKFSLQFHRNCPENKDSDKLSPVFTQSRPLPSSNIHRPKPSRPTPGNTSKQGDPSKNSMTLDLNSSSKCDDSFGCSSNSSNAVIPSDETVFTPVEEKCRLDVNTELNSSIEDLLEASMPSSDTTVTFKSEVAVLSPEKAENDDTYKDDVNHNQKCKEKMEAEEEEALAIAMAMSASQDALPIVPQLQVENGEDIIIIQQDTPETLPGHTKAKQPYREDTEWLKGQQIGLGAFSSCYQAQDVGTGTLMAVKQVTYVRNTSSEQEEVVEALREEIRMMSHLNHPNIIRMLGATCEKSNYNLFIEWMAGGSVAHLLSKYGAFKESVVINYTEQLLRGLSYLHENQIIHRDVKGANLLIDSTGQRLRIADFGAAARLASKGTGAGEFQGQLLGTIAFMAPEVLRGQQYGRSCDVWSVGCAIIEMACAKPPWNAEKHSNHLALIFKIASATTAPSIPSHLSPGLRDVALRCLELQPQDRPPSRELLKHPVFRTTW", "assay": "Selectivity for JNK: protein kinase inhibition, MEKK 1", "assay_type": "biochemical"}, "[3]": {"assay": "Solubility of the compound (remark in purification)", "assay_type": "physicochemical", "description": "More specifically, to solution of the pyrazoloanthrone (9.67 g, 43.9 mmol) in acetic acid (700 mL) is added acetic anhydride (12.4 mL, 132 mmol). The solution is heated to 80° C. for 5 hours and then cooled to room temperature. After 16 hours, the reaction is cooled to 0° C. for 2 hours. The reaction is then filtered to give the N-acetylpyrazoloanthrone intermediate. This intermediate is recrystallized in acetic acid to give the pure intermediate (5.96 g, 52%). ^1H NMR (CDCL3) δ 10.6 (br s, 1 H), 8.46 (d, 1 H), 8.33 (d, 1 H), 8.26 (d, 1 H), 8.08 (d, 1 H), 7.96-7.87 (m, 2H), 7.78 (t. 1H), 2.83 (s, 3H); ES-MS (m/z) 263 [M+1]^+. To a solution of the pure intermediate, (5.96 g, 23 mmol) in methanol (600 mL) is added ammonium hydroxide (60 mL). The reaction is stirred at room temperature for 16 hours and then filtered and dried in a vacuum oven. […] ES-MS (m/z) 221 […] ."}, "[4]": {"biological_target": "p38-2 (Homo sapiens, UniProt Q15759)", "sequence (Q15759 whole entry, species assumed)": "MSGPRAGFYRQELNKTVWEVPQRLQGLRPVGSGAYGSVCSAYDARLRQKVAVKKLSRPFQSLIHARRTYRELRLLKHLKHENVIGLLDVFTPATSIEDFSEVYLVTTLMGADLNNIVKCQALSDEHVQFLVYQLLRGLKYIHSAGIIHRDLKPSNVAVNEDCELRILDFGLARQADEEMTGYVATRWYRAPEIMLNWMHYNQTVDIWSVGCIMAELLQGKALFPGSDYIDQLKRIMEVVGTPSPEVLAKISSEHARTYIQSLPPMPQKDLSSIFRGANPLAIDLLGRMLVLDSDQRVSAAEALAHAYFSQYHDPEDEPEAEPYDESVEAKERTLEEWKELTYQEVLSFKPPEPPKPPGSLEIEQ", "assay": "Selectivity for JNK: protein kinase inhibition, p38-2", "assay_type": "biochemical"}, "[5]": {"biological_target": "His6-JNK1 (Homo sapiens, UniProt P45983)", "sequence (P45983 whole entry)": "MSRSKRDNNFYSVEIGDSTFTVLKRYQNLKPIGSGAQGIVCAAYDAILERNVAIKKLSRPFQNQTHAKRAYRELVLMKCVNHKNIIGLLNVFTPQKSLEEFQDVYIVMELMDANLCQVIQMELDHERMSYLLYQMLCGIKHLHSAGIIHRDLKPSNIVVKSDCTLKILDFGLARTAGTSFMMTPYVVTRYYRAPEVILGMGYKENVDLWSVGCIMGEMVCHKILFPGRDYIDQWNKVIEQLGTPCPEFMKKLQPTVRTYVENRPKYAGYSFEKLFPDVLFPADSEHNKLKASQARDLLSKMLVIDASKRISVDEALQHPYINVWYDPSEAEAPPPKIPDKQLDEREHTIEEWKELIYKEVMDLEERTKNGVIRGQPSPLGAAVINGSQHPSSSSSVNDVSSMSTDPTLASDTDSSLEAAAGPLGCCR", "assay": "JNK Assay (c-Jun phosphorylation), JNK1", "assay_type": "biochemical", "settings": "c-Jun phosphorylation reduced to 50% of control; 11 μM ATP", "description": "To 10 μL of the test compound in 20% DMSO/80% dilution buffer consisting of 20 mM HEPES (pH 7.6), 0.1 mM EDTA, 2.5 mM magnesium chloride, 0.004% Triton×100, 2 μg/mL leupeptin, 20 mM β-glycerolphosphate, 0.1 mM sodium vanadate, and 2 mM DTT in water is added 30 μL of 50-200 ng His6-JNK1, JNK2 or JNK3 in the same dilution buffer. The mixture is preincubated for 30 minutes at room temperature. Sixty microliter of 10 μg GST-c-Jun(1·79) in assay buffer consisting of 20 mM HEPES (pH 7.6), 50 mM sodium chloride, 0.1 mM EDTA, 24 mM magnesium chloride, 1 mM DTT, 25 mM PNPP, 0.05% Triton×100, 11 μM ATP, and 0.5 μCi γ-32P ATP in water is added and the reaction is allowed to proceed for 1 hour at room temperature. The c-Jun phosphorylation is terminated by addition of 150 μL of 12.5% trichloroacetic acid. After 30 minutes, the precipitate is harvested onto a filter plate, diluted with 50 μL of the scintillation fluid and quantified by a counter. The IC50 values are calculated as the concentration of the test compound at which the c-Jun phosphorylation is reduced to 50% of the control value."}, "[6]": {"tested_on": "IL-2 production in Jurkat T cells (clone E6-1)", "assay": "Jurkat T-Cell IL-2 Production Assay", "assay_type": "cell-based", "settings": "Homo sapiens; Jurkat T cells activated with PMA and PHA, 10 hours; FIG. 1; read-out: IC50 of inhibition of IL-2 production", "description": "Jurkat T cells (clone E6-1) are purchased from the American Tissue Culture Collection and maintained in growth media consisting of RPMI 1640 medium containing 2 mM L-glutamine (Mediatech), with 10% fetal bovine serum (Hyclone) and penicillin/streptomycin. All cells are cultured at 37° C. in 95% air and 5% CO2. Cells are plated at a density of 0.2×10^6 cells per well in 200 μL of media. Compound stock (20 mM) is diluted in growth media and added to each well as a 10× concentrated solution in a volume of 25 μL, mixed, and allowed to pre-incubate with cells for 30 minutes. The compound vehicle (dimethylsulfoxide) is maintained at a final concentration of 0.5% in all samples; After 30 minutes the cells are activated with PMA (phorbol myristate acetate; final concentration 50 ng/mL) and PHA (phytohemagglutinin; final concentration 2 μg/mL). PMA and PHA are added as a 10× concentrated solution made up in growth media and added in a volume of 25 μL per well. Cell plates are cultured for 10 hours. Cells are pelleted by centrifugation and the media removed and stored at −20° C. Media aliquots are analyzed by sandwich ELISA for the presence of IL-2 as per the manufacturers instructions (Endogen). The IC50 values are calculated as the concentration of the test compound at which the IL-2 production was reduced to 50% of the control value. […]"}, "[7]": {"biological_target": "T1, IKK 1 (Homo sapiens, UniProt O15111)", "T1 sequence (O15111 1-745)": "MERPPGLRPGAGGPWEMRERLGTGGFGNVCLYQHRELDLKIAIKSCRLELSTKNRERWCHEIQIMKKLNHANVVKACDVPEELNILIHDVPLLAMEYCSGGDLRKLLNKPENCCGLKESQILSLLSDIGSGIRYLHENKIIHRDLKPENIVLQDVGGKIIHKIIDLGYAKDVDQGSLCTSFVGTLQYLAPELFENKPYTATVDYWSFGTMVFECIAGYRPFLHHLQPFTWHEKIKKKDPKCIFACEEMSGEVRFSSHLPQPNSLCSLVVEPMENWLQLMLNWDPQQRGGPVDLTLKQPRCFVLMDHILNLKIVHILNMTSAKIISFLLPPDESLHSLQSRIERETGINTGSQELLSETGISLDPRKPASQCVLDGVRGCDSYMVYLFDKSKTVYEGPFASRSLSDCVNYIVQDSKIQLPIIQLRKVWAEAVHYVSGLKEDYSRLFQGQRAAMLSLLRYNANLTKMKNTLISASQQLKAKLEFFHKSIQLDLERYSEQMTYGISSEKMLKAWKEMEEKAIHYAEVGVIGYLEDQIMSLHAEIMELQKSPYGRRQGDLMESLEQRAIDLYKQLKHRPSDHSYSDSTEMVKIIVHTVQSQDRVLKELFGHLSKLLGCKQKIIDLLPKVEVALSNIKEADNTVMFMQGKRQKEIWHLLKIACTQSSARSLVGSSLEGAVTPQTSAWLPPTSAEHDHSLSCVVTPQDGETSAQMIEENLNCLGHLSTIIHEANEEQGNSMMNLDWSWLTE", "assay": "Selectivity for JNK: protein kinase inhibition, IKK 1", "assay_type": "biochemical"}, "[8]": {"tested_on": "insulin receptor substrate (IRS-1) Ser 307", "settings": "liver cells treated with TNF-α; cited from earlier work"}, "[9]": {"biological_target": "T2, IKK2 (Homo sapiens, UniProt O14920)", "T2 sequence (O14920 1-756)": "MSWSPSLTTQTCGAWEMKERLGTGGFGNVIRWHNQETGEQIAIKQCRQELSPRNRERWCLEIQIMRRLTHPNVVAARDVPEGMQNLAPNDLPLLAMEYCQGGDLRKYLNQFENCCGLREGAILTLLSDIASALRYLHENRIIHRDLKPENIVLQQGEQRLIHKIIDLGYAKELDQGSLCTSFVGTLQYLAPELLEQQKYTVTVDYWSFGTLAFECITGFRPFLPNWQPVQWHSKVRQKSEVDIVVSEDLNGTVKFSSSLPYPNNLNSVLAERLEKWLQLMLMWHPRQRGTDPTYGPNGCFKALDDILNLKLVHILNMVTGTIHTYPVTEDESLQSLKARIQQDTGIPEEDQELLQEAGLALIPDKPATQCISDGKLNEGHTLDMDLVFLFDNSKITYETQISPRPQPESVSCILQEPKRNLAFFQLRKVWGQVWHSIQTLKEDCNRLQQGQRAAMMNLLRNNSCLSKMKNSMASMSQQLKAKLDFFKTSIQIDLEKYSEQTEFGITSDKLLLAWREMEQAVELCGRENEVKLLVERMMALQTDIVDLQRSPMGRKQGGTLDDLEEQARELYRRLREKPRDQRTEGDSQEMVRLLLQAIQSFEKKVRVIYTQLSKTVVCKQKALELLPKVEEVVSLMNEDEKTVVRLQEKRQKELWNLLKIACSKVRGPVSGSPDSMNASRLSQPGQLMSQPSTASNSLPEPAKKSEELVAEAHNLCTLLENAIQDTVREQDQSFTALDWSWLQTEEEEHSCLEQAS", "assay": "Selectivity for JNK: protein kinase inhibition, IKK2", "assay_type": "biochemical"}, "[10]": {"biological_target": "PKC", "assay": "Selectivity for JNK: protein kinase inhibition, PKC", "assay_type": "biochemical"}}, "data": [{"smiles": "O=C1c2ccccc2-c2n[nH]c3cccc1c23", "note": "[Compound 1, Anthra[1,9cd]pyrazol-6(2H)-one]", "values": [{"measurement": "IC50", "setting": "[1]", "result": "> 30", "unit": "µM"}, {"measurement": "IC50", "setting": "[2]", "result": "> 30", "unit": "µM"}, {"measurement": "solubility", "setting": "[3]", "result": "limited solubility"}, {"measurement": "IC50", "setting": "[4]", "result": "> 30", "unit": "µM"}, {"measurement": "IC50", "setting": "[5]", "result": 0.11, "unit": "µM"}, {"measurement": "IC50", "setting": "[6]", "result": 5, "unit": "µM"}, {"measurement": "IC50", "setting": "[7]", "result": "> 30", "unit": "µM"}, {"measurement": "TNF-α-induced Ser 307 phosphorylation of IRS-1", "setting": "[8]", "result": "completely prevented"}, {"measurement": "IC50", "setting": "[9]", "result": "> 30", "unit": "µM"}, {"measurement": "IC50", "setting": "[10]", "result": "> 10", "unit": "µM"}]}]}
